In patent US6525001B1, “Substituted pyrimidine and pyridine herbicides” (Mid-American Commercialization Corporation, priority 1997, dated 2003):

Legend:
Test in all cases: Test E pre-/postemergence/post directed
Type in all cases: in vivo
[1] = tested on: common purslane (Portulaca oleracea); set-up: key: 0 is no effect; 100 is complete control
How it was run: (§1)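 Three application modes in greenhouse pots: preemergence soil spray, postemergence foliar spray at two to four leaves, and post-directed spray to soil and plant base. Ratings of 0–100 injury, assigned visually against untreated controls 13 to 21 days later.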

[2] = tested on: sourgrass (Trichachne insularis); set-up: key: 0 is no effect; 100 is complete control
How it was run: as §1

[3] = tested on: dallisgrass (Paspalum dilatatum); set-up: key: 0 is no effect; 100 is complete control
How it was run: as §1

[4] = tested on: guineagrass (Panicum maximum); set-up: key: 0 is no effect; 100 is complete control
How it was run: as §1

[5] = tested on: bermudagrass (Cynodon dactylon); set-up: key: 0 is no effect; 100 is complete control; settings: PREEMERGENCE, Rate 250 g/ha
How it was run: as §1

[6] = tested on: common groundsel (Senecio vulgaris); set-up: key: 0 is no effect; 100 is complete control; settings: PREEMERGENCE
How it was run: as §1

[7] = tested on: tall mallow (Malva sylvestris); set-up: key: 0 is no effect; 100 is complete control; settings: PREEMERGENCE
How it was run: as §1

[8] = tested on: common ragweed (Ambrosia elatior); set-up: key: 0 is no effect; 100 is complete control; settings: PREEMERGENCE
How it was run: as §1

[9] = tested on: pitted morningglory (Ipomoea lacunosa)
How it was run: as §1

[10] = tested on: johnson grass (Sorghum halepense)
How it was run: as §1

[11] = tested on: itchgrass (Rottboellia exaltata)
How it was run: as §1

[12] = tested on: bermudagrass (Cynodon dactylon); settings: PREEMERGENCE
How it was run: as §1

[13] = tested on: large crabgrass (Digitaria sanguinalis)
How it was run: as §1

[14] = tested on: sandbur (Cenchrus echinatus); settings: PREEMERGENCE
How it was run: as §1

[15] = tested on: Spanishneedles (Bidens bipinnata)
How it was run: as §1

[16] = tested on: common ragweed (Ambrosia elatior)
How it was run: as §1

[17] = tested on: large crabgrass (Digitaria sanguinalis); set-up: key: 0 is no effect; 100 is complete control; settings: PREEMERGENCE, Rate 250 g/ha
How it was run: as §1

Cc1cnc(-n2cnc(C(F)(F)F)c2)nc1Cc1cccc(C(F)(F)F)c1 [Compound 44]
Plant response rating, Com. purslane ([1]; POSTEMERGENCE, Rate 125 g/ha): 70
Plant response rating, Com. purslane ([1]; POSTEMERGENCE, Rate 250 g/ha): 70
Plant response rating, Com. purslane ([1]; PREEMERGENCE, Rate 32 g/ha): 80
Plant response rating, Com. purslane ([1]; PREEMERGENCE, Rate 64 g/ha): 100
Plant response rating, Com. purslane ([1]; PREEMERGENCE, Rate 125 g/ha): 100
Plant response rating, Com. purslane ([1]; PREEMERGENCE, Rate 250 g/ha): 100
Plant response rating, Sourgrass ([2]; POSTEMERGENCE, Rate 125 g/ha): 10
Plant response rating, Sourgrass ([2]; POSTEMERGENCE, Rate 250 g/ha): 20
Plant response rating, Sourgrass ([2]; PREEMERGENCE, Rate 32 g/ha): 80
Plant response rating, Sourgrass ([2]; PREEMERGENCE, Rate 64 g/ha): 100
Plant response rating, Sourgrass ([2]; PREEMERGENCE, Rate 125 g/ha): 100
Plant response rating, Sourgrass ([2]; PREEMERGENCE, Rate 250 g/ha): 100
Plant response rating, Dallisgrass ([3]; POSTEMERGENCE, Rate 125 g/ha): 10
Plant response rating, Dallisgrass ([3]; POSTEMERGENCE, Rate 250 g/ha): 10
Plant response rating, Dallisgrass ([3]; PREEMERGENCE, Rate 32 g/ha): 65
Plant response rating, Dallisgrass ([3]; PREEMERGENCE, Rate 64 g/ha): 80
Plant response rating, Dallisgrass ([3]; PREEMERGENCE, Rate 125 g/ha): 90
Plant response rating, Dallisgrass ([3]; PREEMERGENCE, Rate 250 g/ha): 100
Plant response rating, Guineagrass ([4]; POSTEMERGENCE, Rate 125 g/ha): 85
Plant response rating, Guineagrass ([4]; POSTEMERGENCE, Rate 250 g/ha): 85
Plant response rating, Guineagrass ([4]; PREEMERGENCE, Rate 32 g/ha): 20
Plant response rating, Guineagrass ([4]; PREEMERGENCE, Rate 64 g/ha): 80
Plant response rating, Guineagrass ([4]; PREEMERGENCE, Rate 125 g/ha): 100
Plant response rating, Guineagrass ([4]; PREEMERGENCE, Rate 250 g/ha): 100
Plant response rating, Bermudagrass [5]: 100
Plant response rating, Com. groundsel ([6]; Rate 64 g/ha): 100
Plant response rating, Com. groundsel ([6]; Rate 125 g/ha): 100
Plant response rating, Com. groundsel ([6]; Rate 250 g/ha): 100
Plant response rating, Tall Mallow ([7]; Rate 32 g/ha): 80
Plant response rating, Tall Mallow ([7]; Rate 64 g/ha): 80
Plant response rating, Tall Mallow ([7]; Rate 125 g/ha): 98
Plant response rating, Tall Mallow ([7]; Rate 250 g/ha): 98
Plant response rating, Com. ragweed ([8]; Rate 250 g/ha): 100
Plant response rating, P. morninglory ([9]; POSTEMERGENCE, Rate 125 g/ha): 30
Plant response rating, P. morninglory ([9]; POSTEMERGENCE, Rate 250 g/ha): 40
Plant response rating, P. morninglory ([9]; PREEMERGENCE, Rate 32 g/ha): 20
Plant response rating, P. morninglory ([9]; PREEMERGENCE, Rate 64 g/ha): 30
Plant response rating, P. morninglory ([9]; PREEMERGENCE, Rate 125 g/ha): 50
Plant response rating, P. morninglory ([9]; PREEMERGENCE, Rate 250 g/ha): 50
Plant response rating, Johnsongrass ([10]; POSTEMERGENCE, Rate 125 g/ha): 5
Plant response rating, Johnsongrass ([10]; POSTEMERGENCE, Rate 250 g/ha): 10
Plant response rating, Johnsongrass ([10]; PREEMERGENCE, Rate 32 g/ha): 30
Plant response rating, Johnsongrass ([10]; PREEMERGENCE, Rate 125 g/ha): 60
Plant response rating, Johnsongrass ([10]; PREEMERGENCE, Rate 250 g/ha): 75
Plant response rating, Itchgrass ([11]; POSTEMERGENCE, Rate 125 g/ha): 5
Plant response rating, Itchgrass ([11]; POSTEMERGENCE, Rate 250 g/ha): 10
Plant response rating, Itchgrass ([11]; PREEMERGENCE, Rate 125 g/ha): 30
Plant response rating, Itchgrass ([11]; PREEMERGENCE, Rate 250 g/ha): 40
Plant response rating, Bermudagrass ([12]; Rate 32 g/ha): 30
Plant response rating, Bermudagrass ([12]; Rate 64 g/ha): 80
Plant response rating, Bermudagrass ([12]; Rate 125 g/ha): 98
Plant response rating, Large crabgrass ([13]; POSTEMERGENCE, Rate 125 g/ha): 10
Plant response rating, Large crabgrass ([13]; POSTEMERGENCE, Rate 250 g/ha): 10
Plant response rating, Large crabgrass ([13]; PREEMERGENCE, Rate 64 g/ha): 60
Plant response rating, Large crabgrass ([13]; PREEMERGENCE, Rate 125 g/ha): 70
Plant response rating, Large crabgrass ([13]; PREEMERGENCE, Rate 250 g/ha): 60
Plant response rating, Sandbur ([14]; Rate 64 g/ha): 60
Plant response rating, Sandbur ([14]; Rate 125 g/ha): 70
Plant response rating, Sandbur ([14]; Rate 250 g/ha): 80
Plant response rating, Spanishneedles ([15]; POSTEMERGENCE, Rate 125 g/ha): 10
Plant response rating, Spanishneedles ([15]; POSTEMERGENCE, Rate 250 g/ha): 10
Plant response rating, Spanishneedles ([15]; PREEMERGENCE, Rate 32 g/ha): 20
Plant response rating, Spanishneedles ([15]; PREEMERGENCE, Rate 64 g/ha): 60
Plant response rating, Spanishneedles ([15]; PREEMERGENCE, Rate 125 g/ha): 70
Plant response rating, Spanishneedles ([15]; PREEMERGENCE, Rate 250 g/ha): 98
Plant response rating, Com. ragweed ([16]; POSTEMERGENCE, Rate 125 g/ha): 10
Plant response rating, Com. ragweed ([16]; POSTEMERGENCE, Rate 250 g/ha): 20
Plant response rating, Com. ragweed ([16]; PREEMERGENCE, Rate 32 g/ha): 40
Plant response rating, Com. ragweed ([16]; PREEMERGENCE, Rate 64 g/ha): 85
Plant response rating, Com. ragweed ([16]; PREEMERGENCE, Rate 125 g/ha): 98

Cc1cnc(-n2cnc(C(F)(F)F)n2)nc1C(=O)c1cccc(C(F)(F)F)c1 [Compound 67]
Plant response rating, Com. purslane ([1]; PREEMERGENCE, Rate 32 g/ha): 80
Plant response rating, Com. purslane ([1]; PREEMERGENCE, Rate 64 g/ha): 100
Plant response rating, Com. purslane ([1]; PREEMERGENCE, Rate 125 g/ha): 100
Plant response rating, Com. purslane ([1]; PREEMERGENCE, Rate 250 g/ha): 100
Plant response rating, Sourgrass ([2]; PREEMERGENCE, Rate 32 g/ha): 98
Plant response rating, Sourgrass ([2]; PREEMERGENCE, Rate 64 g/ha): 100
Plant response rating, Sourgrass ([2]; PREEMERGENCE, Rate 125 g/ha): 100
Plant response rating, Sourgrass ([2]; PREEMERGENCE, Rate 250 g/ha): 100
Plant response rating, Dallisgrass ([3]; PREEMERGENCE, Rate 32 g/ha): 40
Plant response rating, Dallisgrass ([3]; PREEMERGENCE, Rate 64 g/ha): 70
Plant response rating, Dallisgrass ([3]; PREEMERGENCE, Rate 125 g/ha): 80
Plant response rating, Dallisgrass ([3]; PREEMERGENCE, Rate 250 g/ha): 100
Plant response rating, Guineagrass ([4]; PREEMERGENCE, Rate 32 g/ha): 80
Plant response rating, Guineagrass ([4]; PREEMERGENCE, Rate 64 g/ha): 100
Plant response rating, Guineagrass ([4]; PREEMERGENCE, Rate 125 g/ha): 100
Plant response rating, Guineagrass ([4]; PREEMERGENCE, Rate 250 g/ha): 100
Plant response rating, Bermudagrass [5]: 100
Plant response rating, Large crabgrass [17]: 100
Plant response rating, Com. groundsel ([6]; Rate 250 g/ha): 100
Plant response rating, Tall Mallow ([7]; Rate 32 g/ha): 80
Plant response rating, Tall Mallow ([7]; Rate 64 g/ha): 90
Plant response rating, Tall Mallow ([7]; Rate 125 g/ha): 90
Plant response rating, Tall Mallow ([7]; Rate 250 g/ha): 98
Plant response rating, Com. ragweed ([8]; Rate 125 g/ha): 100
Plant response rating, Com. ragweed ([8]; Rate 250 g/ha): 100
Plant response rating, P. morninglory ([9]; PREEMERGENCE, Rate 32 g/ha): 60
Plant response rating, P. morninglory ([9]; PREEMERGENCE, Rate 64 g/ha): 75
Plant response rating, P. morninglory ([9]; PREEMERGENCE, Rate 125 g/ha): 90
Plant response rating, P. morninglory ([9]; PREEMERGENCE, Rate 250 g/ha): 90
Plant response rating, Johnsongrass ([10]; PREEMERGENCE, Rate 32 g/ha): 35
Plant response rating, Johnsongrass ([10]; PREEMERGENCE, Rate 64 g/ha): 35
Plant response rating, Johnsongrass ([10]; PREEMERGENCE, Rate 125 g/ha): 50
Plant response rating, Johnsongrass ([10]; PREEMERGENCE, Rate 250 g/ha): 80
Plant response rating, Itchgrass ([11]; PREEMERGENCE, Rate 32 g/ha): 40
Plant response rating, Itchgrass ([11]; PREEMERGENCE, Rate 64 g/ha): 40
Plant response rating, Itchgrass ([11]; PREEMERGENCE, Rate 125 g/ha): 65
Plant response rating, Itchgrass ([11]; PREEMERGENCE, Rate 250 g/ha): 80
Plant response rating, Bermudagrass ([12]; Rate 32 g/ha): 70
Plant response rating, Bermudagrass ([12]; Rate 64 g/ha): 90
Plant response rating, Bermudagrass ([12]; Rate 125 g/ha): 90
Plant response rating, Large crabgrass ([13]; PREEMERGENCE, Rate 32 g/ha): 90
Plant response rating, Large crabgrass ([13]; PREEMERGENCE, Rate 64 g/ha): 95
Plant response rating, Large crabgrass ([13]; PREEMERGENCE, Rate 125 g/ha): 98
Plant response rating, Sandbur ([14]; Rate 32 g/ha): 60
Plant response rating, Sandbur ([14]; Rate 64 g/ha): 60
Plant response rating, Sandbur ([14]; Rate 125 g/ha): 65
Plant response rating, Sandbur ([14]; Rate 250 g/ha): 75
Plant response rating, Spanishneedles ([15]; PREEMERGENCE, Rate 125 g/ha): 50
Plant response rating, Spanishneedles ([15]; PREEMERGENCE, Rate 250 g/ha): 50
Plant response rating, Com. ragweed ([16]; PREEMERGENCE, Rate 32 g/ha): 90
Plant response rating, Com. ragweed ([16]; PREEMERGENCE, Rate 64 g/ha): 95
